According to patent publication US6395731B1, “Heterocyclic derivatives which inhibit Factor Xa” (Astrazeneca AB, priority 1998, dated 2002):
Where a name gives a salt, the structure may show the parent alone.

| Compound | melting point [°C] |
| --- | --- |
| Nc1nc(-c2ccc(C(=O)N3CCN(S(=O)(=O)c4ccc5cc(Br)ccc5c4)CC3)cc2)c[nH]1 (as salt: salt) [Example 4, 1-(6-Bromonaphth-2-ylsulphonyl)-4-[4-(2-aminoimidazol-4-yl)benzoyl]piperazine] | 274 to 275 |
| Cc1nc(-c2ccc(C(=O)N3CCN(S(=O)(=O)c4ccc5cc(Br)ccc5c4)CC3)cc2)c[nH]1 [Example 3, 1-(6-Bromonaphth-2-ylsulphonyl)-4-[4-(2-methylimidazol-4-yl)benzoyl]piperazine] | 215 to 216 |
